Data as given in patent publication US7932262B2 (Novartis AG, priority 2006, dated 2011).

Target: T1, PDK1 kinase (Homo sapiens, UniProt O15530)
T1 sequence (O15530 1-556): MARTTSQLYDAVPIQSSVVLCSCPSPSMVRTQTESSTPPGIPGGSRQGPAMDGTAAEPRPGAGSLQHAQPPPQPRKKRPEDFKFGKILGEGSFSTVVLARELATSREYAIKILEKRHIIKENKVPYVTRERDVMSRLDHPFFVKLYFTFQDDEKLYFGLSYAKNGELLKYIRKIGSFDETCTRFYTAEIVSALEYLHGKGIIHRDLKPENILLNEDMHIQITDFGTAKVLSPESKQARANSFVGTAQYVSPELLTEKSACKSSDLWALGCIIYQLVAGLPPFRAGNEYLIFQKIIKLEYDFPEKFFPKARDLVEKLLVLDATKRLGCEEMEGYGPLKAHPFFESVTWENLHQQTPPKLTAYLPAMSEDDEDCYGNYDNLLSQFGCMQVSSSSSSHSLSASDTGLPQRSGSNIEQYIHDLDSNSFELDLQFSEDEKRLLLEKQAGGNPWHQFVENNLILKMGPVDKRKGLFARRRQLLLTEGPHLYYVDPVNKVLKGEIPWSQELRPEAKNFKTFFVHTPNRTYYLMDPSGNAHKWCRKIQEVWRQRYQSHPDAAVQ
Assay: PDK1 Kinase Alpha Screen Assay
Format: biochemical
Conditions: PDK1 Kinase Alpha Screen Assay; read-out: PDK1 IC50
Method: 1. PDK1 Kinase Alpha Screen Assay
Reagents/Concentrations: The PDK1-4 peptide substrate, biotin-[…]-NH2, was purchased from the Tufts University Core Facility. The final concentration of PDK1-4 peptide substrate was 50 nM The ATP substrate (Adenosine-5′-triphosphate) was purchased from Roche Diagnostics. The final concentration of ATP substrate was 10 uM. Phospho-(Ser/Thr) PKA substrate antibody was purchased from Cell Signaling Technology. The final concentration of antibody was 0.3 mg/ml. The Alpha Screen Protein A detection kit containing donor and acceptor beads was purchased from PerkinElmer Life Sciences. The final concentration of both donor and acceptor beads was 25 μg/ml. Alpha Screen was used for detection. The biotinylated-PDK1-4 peptide was phosphorylated by PDK1 kinase using the ATP substrate. The biotinylated-PDK1-4 peptide substrate was bound to the streptavidin coated donor bead. The antibody was bound to the protein A coated acceptor bead. The antibody bound to the phosphorylated form of the biotinylated PDK-1 peptide substrate, bringing the donor and acceptor beads into close proximity. Laser irradiation of the donor bead at 680 nm generated a flow of short-lived singlet oxygen molecules. When the donor and acceptor beads were in close proximity, the reactive oxygen generated by the irradiation of the donor beads initiated a luminescence/fluorescence cascade in the acceptor beads. This process led to a highly amplified signal with output in the 530-620 nm range. Assays were carried out in 50 mM Tris, pH=7.5, 10 mM MgCl2, 0.1% Bovine Serum Albumin, 0.01% Tween-20, 2 mM Dithiolthreitol, 2.5% Dimethyl Sulfoxide. Reactions were stopped by adding 50 mM Tris, pH=7.5, 90 mM EDTA, 0.1% Bovine Serum Albumin, 0.01% Tween-20.
Procedure: To 10 μl of PDK1-4 peptide, 0.5 μl of test compound in dimethyl sulfoxide is added. PDK1 kinase and ATP are mixed. 10 μl of the PDK1 kinase/ATP mix is added to start the reaction. The reaction is allowed to proceed for 3-18 hours. The reactions are stopped by adding 10 μl of the EDTA-containing stop buffer. Beads are mixed with antibody. 25 μl of the bead/antibody mix is added to the stopped reactions. Plates are incubated at room temperature overnight to allow for detection development before being read. The assay is run is a 384-well format. […]

IC50 [µM]	Structure (SMILES)
< 5	COc1ccccc1Oc1cccc2cnc(Nc3ccc(S(N)(=O)=O)cc3)nc12 [Compound 408, 4-(8-(2-methoxyphenoxy)quinazolin-2-ylamino)benzenesulfonamide]
< 5	NC(=O)c1cccc(Oc2cccc3cnc(Nc4ccc(S(N)(=O)=O)cc4)nc23)c1 [Compound 411, 3-(2-(4-sulfamoylphenylamino)quinazolin-8-yloxy)benzamide]
< 5	NS(=O)(=O)c1ccc(Nc2ncc3cccc(Oc4ccnc(F)c4)c3n2)cc1 [Compound 412, 4-(8-(2-fluoropyridin-4-yloxy)quinazolin-2-ylamino)benzenesulfonamide]
< 5	NS(=O)(=O)c1ccc(Nc2ncc3ccc(Oc4ccnc(F)c4)cc3n2)cc1 [Compound 416, 4-(7-(2-fluoropyridin-4-yloxy)quinazolin-2-ylamino)benzenesulfonamide]

Same assay, conditions: read-out: PDK1 IC50

IC50 [µM]	Structure (SMILES)
5 to 10	CCCCNS(=O)(=O)c1cccc(Nc2ncc3cccc(-c4cccc(NC(C)=O)c4)c3n2)c1 [Compound 87, N-{3-[2-(3-Butylsulfamoyl-phenylamino)-quinazolin-8-yl]-phenyl}-acetamide]
< 5	NC(=O)c1ccccc1-c1ccc2cnc(Nc3ccc(S(N)(=O)=O)cc3)nc2c1 [Compound 125, 2-[2-(4-Sulfamoyl-phenylamino)-quinazolin-7-yl]-benzamide]
5 to 10	CC(=O)Nc1cccc(-c2ccc3cnc(Nc4ccc(S(N)(=O)=O)cc4)nc3c2)c1 [Compound 126, N-{3-[2-(4-Sulfamoyl-phenylamino)-quinazolin-7-yl]-phenyl}-acetamide]
< 5	CS(=O)(=O)c1cccc(-c2ccc3cnc(Nc4ccc(S(N)(=O)=O)cc4)nc3c2)c1 [Compound 128, 4-[7-(3-Methanesulfonyl-phenyl)-quinazolin-2-ylamino]-benzenesulfonamlde]
10 to 25	CS(=O)(=O)Nc1cccc(-c2ccc3cnc(Nc4ccc(S(N)(=O)=O)cc4)nc3c2)c1 [Compound 129, 4-[7-(3-Methanesulfonylamino-phenyl)-quinazolin-2-ylamino]-benzenesulfonamide]

System: PC-3 cells
Assay: Cell Proliferation Assay (Cell Titer Glo), PC-3 cell line
Format: cell-based
Conditions: Homo sapiens, PC-3, Cell Proliferation Assay, PC3; read-out: CPEC50 PC3
Method: IV. Cell Proliferation Assay Protocol:
A2780, PC-3, or PC3MM cells were seeded at 1000 cells/well in 100 μL/well (10.000 cells/mL) growth media in 96-well plates. Cells were allowed to adhere to the bottom of plates for 3-5 hours in a 37° C. 5% CO2 incubator. Compounds were dissolved in DMSO and then transferred to the cell plates. The cells were incubated with the compounds for 3 days in a 37° C. 5% CO2 incubator. The growth medium containing the compounds was then removed from the cells and fresh medium was added, followed by 100 μL of Cell Titer Glo assay reagent (Promega). This mixture was shaken for 1 minute and then incubated without shaking for 10 minutes. Activity determinations for the compounds were made by detection on a Trilux Instrument.
V. Cell Proliferation Assay Protocol: PC-3 Cell Line
PC-3 cells were seeded at 1000 cells/well in 100 μL/well (10.000 cells/mL) along with growth media into black-walled, clear bottom 96-well plates. The cells were allowed to adhere to the bottom of the plate for 3-5 hours in a 37° C. 5% CO2 incubator.
Test compounds were diluted to 500× in DMSO. The DMSO solutions of six of the compounds were transferred to the cells in the 96 well round bottom plate, column 2, row B-F. A 1:3 serial dilution of each compound was carried out. The serial dilution comprised adding 20 μL of DMSO to the wells containing the compounds and doing a 1:3 dilution across the plate from columns 2-10. Column 11 contained only DMSO. The serial dilution was carried out using a BioMek 2000 protocol “CP Serial Dilution using 250 μL tips” or “Proliferation Compound” (if using 20 μL tips).
To a 96 deep well block, columns 2-11 rows B-F, was transferred 500 μL of growth medium. Using the FX protocol “HH_CellAssay—2 μL to 500 μL”, 2 μL of compound from each cell of the compound plate was transferred to the corresponding cell in the 96 deep well block containing 500 μL of growth medium. The instrument was programmed to dilute the compound in growth medium and then transfer 100 μL of that mixture to cell plates containing cells. The cell plates, to which test compounds had been added, were incubated for 3 days at 37° C. Following the incubation, the medium was removed and replaced with fresh medium. Cell Titer Glo (100 μL) was added to each well and the plate was shaken for 1 minute and then incubated without shaking for 10 minutes. The plates were then read using a Trilux instrument.

EC50 [µM]	Structure (SMILES)
5 to 10	CNc1ncc2ccc(OC3CCN(C(C)C)CC3)cc2n1 [Compound 322, 7-(1-isopropylpiperidin-4-yloxy)-N-methylquinazolin-2-amine]
5 to 10	CNc1ncc2ccc(O)c(C3CCN(C(C)C)CC3)c2n1 [Compound 323, 8-(1-isopropylpiperidin-4-yl)-2-(methylamino)quinazolin-7-ol]
< 5	CC(C)N1CCC(Oc2ccc3cnc(Nc4nc5ccccc5s4)nc3c2)CC1 [Compound 324, N-(7-(1-isopropylpiperidin-4-yloxy)quinazolin-2-yl)benzo[d]thiazol-2-amine]
5 to 10	O=C(NC1CCNCC1)c1ccc(Nc2ncc3c(Br)ccc(OC4CCNCC4)c3n2)cc1 [Compound 370, 4-(5-bromo-8-(piperidin-4-yloxy)quinazolin-2-ylamino)-N-(piperidin-4-yl)benzamide]
5 to 10	COc1cc(C(=O)NC2CCN(C)CC2)ccc1Nc1ncc2c(Br)ccc(OC3CCNCC3)c2n1 [Compound 371, 4-(5-bromo-8-(piperidin-4-yloxy)quinazolin-2-ylamino)-3-methoxy-N-(1-methylpiperidinyl)benzamide]
< 5	Brc1ccc(OC2CCNCC2)c2nc(Nc3ccc(N4CCNCC4)cc3)ncc12 [Compound 372, 5-bromo-N-(4-(piperazin-1-yl)phenyl)-8-(piperidin-4-yloxy)quinazolin-2-amine]
5 to 10	Cc1ccc(OC2CCNCC2)c2nc(Nc3ccc(N4CCNCC4)cc3)ncc12 [Compound 374, 5-methyl-N-(4-(piperazin-1-yl)phenyl)-8-(piperidin-4-yloxy)quinazolin-2-amine]
5 to 10	Cc1ccc(OC2CCNCC2)c2nc(Nc3ccc(C(=O)NC4CCNCC4)cc3)ncc12 [Compound 376, 4-(5-methyl-8-(piperidin-4-yloxy)quinazolin-2-ylamino)-N-(piperidin-4-yl)benzamide]
5 to 10	CC(C)N1CCC(Oc2cccc3cnc(NC(=O)c4ccccc4)nc23)CC1 [Compound 541, N-(8-(1-isopropylpiperidin-4-yloxy)quinazolin-2-yl)benzamide]
5 to 10	CC(C)N1CCC(Oc2cccc3cnc(NS(=O)(=O)c4ccccc4)nc23)CC1 [Compound 542, N-(8-(1-isopropylpiperidin-4-yloxy)quinazolin-2-yl)benzenesulfonamide]
5 to 10	CC(C)N1CCC(Nc2ncc3cccc(O)c3n2)CC1 [Compound 543, 2-(1-isopropylpiperidin-4-ylamino)quinazolin-8-ol]
5 to 10	CC(=O)Nc1ncc2cccc(OC3CCN(C(C)C)CC3)c2n1 [Compound 544, N-(8-(1-isopropylpiperidin-4-yloxy)quinazolin-2-yl)acetamide]
< 5	NS(=O)(=O)c1ccc(Nc2ncc3cc(C(=O)Nc4cccc(NC(=O)c5ccccc5)c4)ccc3n2)cc1 [Compound 578, N-(3-benzamidophenyl)-2-(4-sulfamoylphenylamino)quinazoline-6-carboxamide]
< 5	CC(C)NC(=O)c1ccc(Nc2ncc3ccc(Oc4ccccc4)cc3n2)cc1 [Compound 591, N-isopropyl-4-(7-phenoxyquinazolin-2-ylamino)benzamide]

Same assay, conditions: Homo sapiens, PC-3, PC3 cells; read-out: CPEC50 PC3

EC50 [µM]	Structure (SMILES)
< 5	Nc1ncc(-c2ccc3cnc(Nc4ccc(S(N)(=O)=O)cc4)nc3c2OC2CCNCC2)cc1C(F)(F)F [Compound 933, 4-(7-(6-amino-5-(trifluoromethyl)pyridin-3-yl)-8-(piperidin-4-yloxy)quinazolin-2-ylamino)benzenesulfonamide]
< 5	Nc1cc(C(F)(F)F)c(-c2ccc3cnc(Nc4ccc(S(N)(=O)=O)cc4)nc3c2OC2CCNCC2)cn1 [Compound 934, 4-(7-(6-amino-4-(trifluoromethyl)pyridin-3-yl)-8-(piperidin-4-yloxy)quinazolin-2-ylamino)benzenesulfonamide]
< 5	COc1cc(Nc2ncc3ccc(OC4CCNCC4)cc3n2)cc(OC)c1 [Compound 957, N-(3,5-dimethoxyphenyl)-7-(piperidin-4-yloxy)quinazolin-2-amine]
